Measurements from US20240424051A1, “COMPOSITION FOR TREATING […] OS[…] MECHANISM PROMOTING FORMATION OF MUSCLE FIBERS OR INHIBITING OSTEOCLASTOGENESIS, […]-L-PHENYLALANYL-L-PROLINE DIPEPTIDES” (CELLBION CO., LTD, priority 2021, published 2024).

Legend:
myoblasts = assay: Differentiation of myoblasts and LADD staining (muscle fiber formation experiment); type: cell-based; settings: mouse myoblasts, LADD staining, compared to vehicle, FIG. 1
Source text: Muscle growth is due to the formation of muscle fibers according to the binding between individual myoblasts. Therefore, the improvement of muscle growth can be estimated through the degree of muscle fiber formation in the environment that induced the binding of myoblasts. Accordingly, myoblasts were isolated from the muscle tissue of a subject and cultured, and whether muscle fibers were formed using the isolated myoblasts was observed.
The formation of muscle fibers can be evaluated by measuring the number of myoblasts that form muscle fibers and the thickness of the formed muscle fibers. To this end, a high-magnification optical microscope was used to identify the nucleus in the muscle fiber through muscle fiber staining. The thickness of the muscle fiber was also measured.
The muscle tissue was minced with a scalpel for 5 minutes. The minced muscle solution was incubated at 37° C. for 60 minutes and then centrifuged at 1500 rpm for 5 minutes. The obtained cells were suspended in Ham's F-10 medium containing 20% heat-inactivated horse serum and 50 units/ml of penicillin in the presence of basic FGF (2.5 ng/ml), and then plated on a cell culture dish for 1 hour without gelatin coating. After 1 hour, the suspended cells were transferred to a secondary cell culture dish without gelatin coating and cultured for 1 hour. […]

muscle mass of mice = assay: Muscle collection and weighing after oral gavage of cFP; type: in vivo, mouse; settings: male C57BL/6J mice, oral gavage every 24 hours, compared to the control group, FIG. 3
Method: According to an embodiment of the present invention, the increase in muscle weight and bone mass by oral administration of cyclo-L-phenylalanyl-L-proline (cFP) was measured. Muscle weight was measured by separating the muscles of the mouse according to anatomical muscle classification. In addition, trabecular bone analysis on the femur of the mouse was performed using high-resolution micro-CT (SMX-90CT system). Based on the growth plate of the femur, the lower part of the 1 mm was the starting point of the analysis, and the analysis was conducted from the starting point to 1.5 mm below the bone. Each indicator means as follows. bone volume/total bone volume (BV/TV, %), bone surface/trabecular bone volume (BS/BV, 1/mm), trabecular thickness (Tb. Th, mm), trabecular number (Tb.N, 1/mm), trabecular separation (Tb. Sp, mm).
Animal studies were conducted in accordance with the guidelines for animal research. All experimental procedures were approved by the Animal Care and Use Committee of Seoul National University Animal Hospital. Male C57BL/6J mice at 4 or 6 weeks of age were purchased from Orient Bio Inc. (Seongnam, Korea) and housed in a specific pathogen-free (SPF) animal facility with controlled temperature (22° C.), humidity (55%), and a 12-hour light-dark cycle. All animals were provided with a free feeding and drinking system. […]

[1] = test system: trabecular bone of mouse femur; assay: Micro-CT analysis of trabecular bone of femur after free drinking of cFP; type: in vivo; settings: cFP in drinking water (free drinking), FIG. 4

`O=C1NC(Cc2ccccc2)C(=O)N2CCCC12` [cFP, cyclo-L-phenylalanyl-L-proline] was tested, and the “fusion of myoblasts (muscle fiber formation; diameter of myotube and number of nuclei of myotube)” value (myoblasts) was “promoted the fusion of myoblasts”, the “muscle mass of the mice” value (muscle mass of mice) was “increased” and the “BV/TV (bone volume/total bone volume)” value [1] was “significantly high”. For the same compound, the “Tb. N (trabecular number)” value [1] was “significantly high” and the “Tb. Th (trabecular thickness)” value [1] was “significantly high”.
